# Source: PMC2714474, “Extreme variability in the formation of chlorpyrifos oxon (CPO) in patients poisoned by chlorpyrifos (CPF)” (Biochemical Pharmacology, 2009)
# Columns and labels:
# CYP3A4 = conditions: read-out: Km of CPF desulfuration; human hepatic CYP3A4; cited from earlier work
# CYP2B6 = conditions: read-out: Km of CPF desulfuration; human hepatic CYP2B6; cited from earlier work
# [1] = Plasma CPF concentration in CPF-poisoned patients (HPLC)
# Experimental: (§2) Serial blood samples stem from patients with acute chlorpyrifos poisoning who were enrolled in two randomised controlled studies (RCT1: ISRCTN02920054 and RCT2: ISRCTN55264358). The studies were performed in Sri Lankan hospitals in Anuradhapura and Polonnaruwa aimed at evaluating the efficacy of oral superactivated charcoal (RCT 1) or pralidoxime (RCT 2) in symptomatic organophosphorus pesticide poisoning. Additional patients were recruited in a prospective cohort study in Nuwara Eliya that was assessing changes in neuromuscular junctional function in organophosphorus pesticide poisoning. […] Treatment consisted of fluid resuscitation and atropine as described [15] and pralidoxime chloride 1 g every 6 for 48 h (RCT1 and Nuwara Eliya cohort), although there was no strict adherence to this regimen. Patients in RCT2 were randomised to receive pralidoxime (2 g pralidoxime chloride loading dose over 20 min, then 0.5 g/h until a maximum of 7 days) or an equal volume of normal saline in addition to the supportive therapy mentioned above. The blood samples were collected between 25 May 2004 and 18 October 2006.
# (§3) Blood samples were collected into tubes containing EDTA prior to pralidoxime, then at 1, 4, 12, and 24 h after administration, then once daily until discharge or death. A 0.2 mL blood sample was diluted at the bedside immediately after collection with 4 mL of ice-cold saline and frozen to −23 °C until analysis of AChE activity. The remaining sample was promptly centrifuged and the aspirated plasma frozen at −23 °C until analysis of BChE activity, inhibitory activity, and the concentration of CPF and CPO [15].
# CPF was determined by reversed phase HPLC with detection at 288 nm. Specifically, 0.5 mL plasma was mixed with 10 μL of 500 μM fenitrothion as internal standard to control the extraction yield. The plasma was extracted twice with 1 mL n-hexane for 1 min and residual lipoproteins in the combined hexane phases were precipitated with 50 μL 1 M perchloric acid, followed by centrifugation (10.000 rpm for 1 min). The hexane phase was transferred in a borosilica vial and 10 μL of DMSO was added as keeper. Hexane was evaporated at approximately 40 °C for 30 min in a Speed-Vac-Concentrator. The residue was dissolved in 90 μL of methanol:water (70/30, v/v) and 50 μL were applied to LiChrosphere 100 RP-18, 5 μm, 125 mm × 4 mm (E. Merck, Darmstadt, Germany) and eluted at a flow rate of 1 mL/min by gradient elution. […] Typically, fenitrothion was eluted after 3.3 min and chlorpyrifos after 11.5 min. The lower limit of quantification (LOQ) was 0.1 μM in plasma.
# [2] = biological target: butyrylcholinesterase (BChE; EC 3.1.1.8) (Homo sapiens, UniProt P06276); experiment: BChE activity in plasma of CPF-poisoned patients; format: in vivo; conditions: one patient, 70 min after CPF ingestion
# Chain of butyrylcholinesterase (BChE; EC 3.1.1.8) (P06276 29-602): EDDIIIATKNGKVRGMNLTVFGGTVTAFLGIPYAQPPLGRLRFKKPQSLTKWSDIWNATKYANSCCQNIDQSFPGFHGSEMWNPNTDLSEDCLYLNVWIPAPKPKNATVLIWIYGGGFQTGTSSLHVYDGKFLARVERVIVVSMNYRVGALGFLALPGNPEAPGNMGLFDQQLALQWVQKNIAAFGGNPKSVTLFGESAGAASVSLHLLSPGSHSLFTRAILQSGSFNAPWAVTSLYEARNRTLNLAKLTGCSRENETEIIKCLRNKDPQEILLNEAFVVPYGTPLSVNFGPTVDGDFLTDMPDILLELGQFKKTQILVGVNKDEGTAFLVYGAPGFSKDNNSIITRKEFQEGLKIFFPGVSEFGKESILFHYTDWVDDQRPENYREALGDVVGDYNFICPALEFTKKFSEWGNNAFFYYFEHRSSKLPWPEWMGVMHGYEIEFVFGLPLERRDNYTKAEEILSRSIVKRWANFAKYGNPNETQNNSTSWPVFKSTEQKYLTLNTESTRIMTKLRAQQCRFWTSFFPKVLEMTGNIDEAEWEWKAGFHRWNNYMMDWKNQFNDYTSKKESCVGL
# Experimental: (§1) Laboratory analyses were conducted in Munich, Germany. AChE activity was determined in native RBCs (AChE in vivo) and after reactivation with supra-therapeutic obidoxime (AChE in vitro) to estimate the reactivatable fraction. These assays were performed using a modified Ellman assay as described. BChE activity and inhibitory activity of plasma were assessed as reported. In short, inhibitory activity of patient plasma was tested by incubating 3 volumes of hemolysate (3 g Hb/100 mL 0.1 M phosphate buffer, pH 7.4; washed red blood cells from a healthy donor) with 1 volume of patient plasma at 37 °C for 60 min.
# [3] = biological target: T1, RBC acetylcholinesterase (AChE; EC 3.1.1.7) (Homo sapiens, UniProt P22303); experiment: RBC-AChE activity in CPF-poisoned patients (modified Ellman assay); format: in vivo
# T1 construct: from tissue; host or cells: red blood cells (diluted whole blood) of chlorpyrifos-poisoned patients
# T1 sequence (P22303 32-617 isoform P22303-2 limits assumed): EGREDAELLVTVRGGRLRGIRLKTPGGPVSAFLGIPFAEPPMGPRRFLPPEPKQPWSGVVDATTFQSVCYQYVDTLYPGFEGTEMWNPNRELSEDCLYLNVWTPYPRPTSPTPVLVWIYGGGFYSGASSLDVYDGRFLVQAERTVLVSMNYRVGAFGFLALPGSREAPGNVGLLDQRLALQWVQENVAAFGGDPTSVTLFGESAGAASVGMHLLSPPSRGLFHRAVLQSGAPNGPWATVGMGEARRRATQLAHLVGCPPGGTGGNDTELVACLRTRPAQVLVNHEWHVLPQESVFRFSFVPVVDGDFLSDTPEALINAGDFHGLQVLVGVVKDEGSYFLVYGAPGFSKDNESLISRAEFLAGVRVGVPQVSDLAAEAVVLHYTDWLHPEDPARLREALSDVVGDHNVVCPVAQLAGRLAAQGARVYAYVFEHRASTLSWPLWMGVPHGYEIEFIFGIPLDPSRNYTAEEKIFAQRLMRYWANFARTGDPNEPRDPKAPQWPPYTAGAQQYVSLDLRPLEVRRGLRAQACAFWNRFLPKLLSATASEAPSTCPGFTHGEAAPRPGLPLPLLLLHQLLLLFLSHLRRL
# Experimental: as §1
# BChE = conditions: cited from earlier work
# [4] = tested on: human diethylphosphoryl-AChE; conditions: human red blood cells in vitro, cited from earlier work
# bovine serum albumin [5] = experiment: Hydrolysis / inactivation of CPO by serum albumin; format: biochemical; conditions: 20 nM CPO, 1% albumin in inhibition assay, assuming human serum albumin has similar constants as BSA
# RBC-AChE = biological target: T2, RBC-AChE (Homo sapiens, UniProt P22303); experiment: Inhibitory activity of patient plasma towards RBC-AChE of a healthy donor; format: biochemical; conditions: EDTA-based plasma, absence of pralidoxime
# T2 construct: washed red blood cells from a healthy donor; from tissue; host or cells: haemolysate of washed red blood cells from a healthy donor
# T2 sequence (P22303 32-617 isoform P22303-2 limits assumed): as above
# Experimental: as §1
# [6] = tested on: human red blood cell AChE; parameters: method as in PMID 15181665; conditions: cited from earlier work
# [7] = tested on: human red blood cell AChE; experiment: Inhibition kinetics of human red blood cell AChE by CPO; format: biochemical; conditions: 11.3 nM AChE, 20 nM CPO
# From the text: The basis for the calculation of free CPO is the equation given below: [E]/[EP+EPOx]=kr/ki×[P]×(1+KD/[Ox]) E = active enzyme; EP = phosphorylated, but unaged enzyme; EPOx = complex of oxime and phosphorylated, but unaged enzyme; [EP + EPOx] is the reactivatable enzyme = AChE in vitro–AChE in vivo; kr is the first-order reactivation rate constant; KD is the dissociation constant of the complex EPOx; ki is the second-order inhibition rate constant; [P] is the oxon concentration; [Ox] is the oxime concentration.
# The fraction of active test AChE upon incubation with known amounts of CPO in plasma samples was calculated discretely in 1-min increments using the following equation: E=E0−ki×(E−EP)×0.15×(CPO0−EP), with E0 and CPO0 being the AChE and total CPO concentration at t = 0 (the factor 0.15 corrects for the fraction not bound reversibly to albumin).
# [8] = Plasma CPO concentration in CPF-poisoned patients (enzyme-based assay with horse BChE); conditions: median (IQR)
# Experimental: as §2, §3
# CPO was determined by an enzyme-based assay as described recently [9]. In short, CPO was extracted with n-pentane and the reconstituted residue titrated with purified horse BChE, allowing an LOQ of 0.5 nM. The data were corrected for 83% recovery of CPO from plasma [9].
# [9] = Ratio CPO/CPF in plasma of CPF-poisoned patients; format: in vivo, human
# From the text: Data were excluded when CPF and/or CPO were below the LOQs or when the time of ingestion or blood sampling was ambiguous. […] In these cases significant post-sampling reactions had to be suspected.
# bovine serum albumin [10] = conditions: pH 7.4 and 37 °C, cited from earlier work
compound,measurement,setting,value
"CCOP(=S)(OCC)Oc1nc(Cl)c(Cl)cc1Cl [CPF, Chlorpyrifos]",Km,CYP3A4,~30 µM
same,Km,CYP2B6,~1 µM
same,CPF plasma concentration,"[1]; 0–4 h post poisoning, median (interquartile range), n=52",2.54 (1.6–4.7) μM
same,CPF plasma concentration,"[1]; 4–8 h post poisoning, median (IQR), n=67",1.65 (0.7–3.2) μM
same,CPF plasma concentration,"[1]; 8–16 h post poisoning, median (IQR), n=59",0.70 (0.4–1.2) μM
same,CPF plasma concentration,"[1]; 16–24 h post poisoning, median (IQR), n=30",0.44 (0.3–1.5) μM
same,CPF plasma concentration,"[1]; 24–36 h post poisoning, median (IQR), n=45",0.47 (0.3–1.1) μM
same,CPF plasma concentration,"[1]; 36–60 h post poisoning, median (IQR), n=41",0.66 (0.2–1.0) μM
same,CPF plasma concentration,"[1]; 60–84 h post poisoning, median (IQR), n=27",0.46 (0.2–0.8) μM
same,CPF plasma concentration,"[1]; 84–120 h post poisoning, median (IQR), n=28",0.39 (0.2–0.7) μM
same,"BChE activity, of normal",[2],less than 2%
same,"AChE activity, of normal","[3]; one patient, 70 min after CPF ingestion",< 10%
"CCOP(=O)(OCC)Oc1cc(C)nc(C(C)C)n1 [diazoxon, reference compound]","reactivity in inhibiting BChE, times less than CPO",BChE,20 times
C[n+]1ccccc1/C=N/O [pralidoxime],"kr, first-order reactivation rate constant",[4],0.3 min⁻¹
same,Kd,"[4]; read-out: KD, dissociation constant of the complex EPOx",330 µM
same,AChE reactivation (fraction of active enzyme from reactivatable pool),"[3]; patient A, continuous pralidoxime infusion given for 5 days",~90%
Chlorpyrifos oxon [CPO],rate of CPO inactivation by albumin,bovine serum albumin [5],0.45 nM/min
same,fraction of CPO capable of inhibiting AChE,RBC-AChE,roughly 2/3
same,"ki, second-order inhibition rate constant",[6],100000 M⁻¹ s⁻¹
same,(initial) AChE inhibition rate,[7],1.35 nM/min
same,CPO plasma concentration,"[8]; 0–4 h post CPF poisoning, n=52",10.1 (4.5–22.2) nM
same,CPO plasma concentration,"[8]; 4–8 h post CPF poisoning, n=67",11.9 (6.5–21.5) nM
same,CPO plasma concentration,"[8]; 8–16 h post CPF poisoning, n=59",12.7 (5.5–22.5) nM
same,CPO plasma concentration,"[8]; 16–24 h post CPF poisoning, n=30",9.6 (4.1–30.1) nM
same,CPO plasma concentration,"[8]; 24–36 h post CPF poisoning, n=45",14.1 (4.7–34.5) nM
same,CPO plasma concentration,"[8]; 36–60 h post CPF poisoning, n=41",16.7 (3.4–68.4) nM
same,CPO plasma concentration,"[8]; 60–84 h post CPF poisoning, n=27",22.7 (2.2–59.9) nM
same,CPO plasma concentration,"[8]; 84–120 h post CPF poisoning, n=28",7.1 (4.2–40.2) nM
same,CPO/CPF × 1000,"[9]; 0–4 h post poisoning, median (IQR) of individual sample ratios",4.2 (1.9–9.5)
same,CPO/CPF × 1000,"[9]; 4–8 h post poisoning, median (IQR)",6.8 (4.3–14.0)
same,CPO/CPF × 1000,"[9]; 8–16 h post poisoning, median (IQR)",17.5 (9.2–31.6)
same,CPO/CPF × 1000,"[9]; 16–24 h post poisoning, median (IQR)",14.2 (10.5–42.6)
same,CPO/CPF × 1000,"[9]; 24–36 h post poisoning, median (IQR)",28.6 (11.3–44.4)
same,"ratio CPO/CPF, other individuals","[9]; 24–120 h, steady-state, high individuals",> 0.05
same,"ratio CPO/CPF, some individuals","[9]; 24–120 h, steady-state, low individuals",below 0.01
same,CPO/CPF × 1000,"[9]; 36–60 h post poisoning, median (IQR)",29.2 (14.4–70.7)
same,CPO/CPF × 1000,"[9]; 60–84 h post poisoning, median (IQR)",37.3 (12.7–65.3)
same,CPO/CPF × 1000,"[9]; 84–120 h post poisoning, median (IQR)",25.0 (15.4–53.6)
same,ratio of CPO/CPF (apparent steady-state mean),[9]; between 30 and 72 h,0.03
same,ratio of CPO/CPF (mean),[9]; first few hours after ingestion,0.005
same,ratio of CPO/CPF,[9]; period between 0 and 4 h after ingestion,less than 0.005
same,ratio of CPO/CPF on average,[9]; period between 24 and 120 h,~0.03
same,reaction faster with BChE than with AChE,BChE,more than 2 orders of magnitude
same,Vmax of CPO 'hydrolysis' by bovine serum albumin,bovine serum albumin [10],0.9 nmol/min/mg protein
same,Km,bovine serum albumin [10]; read-out: Km of CPO 'hydrolysis' by bovine serum albumin,400 µM
